US11596642B2, “Therapeutic treatment of breast cancer based on c-MAF status” (INBIOMOTION S.L., priority 2016, dated 2023)

Columns and labels:
Type in all cases: in vivo, human
breast cancer [1] = assay: AZURE trial, retrospective MAF FISH stratification: time to bone metastasis (zoledronic acid arm vs control arm)
Text: (§1) The MAF FISH assay was produced by Kreatech for Inbiomotion based on KREATECH proprietary FISH technology. The probe set contains two probes: a MAF 16q23 probe plus a D16Z3 probe as control of chromosome 16 centromeric region. The assay was validated using a 16q23/D16Z3 probe (Inbiomotion) and Poseidon Tissue Digestion Kit from Kreatech. The scoring criteria were defined in a fact sheet and as follows: two FISH evaluable results per patient, and the highest value was selected. The scoring algorithm was as follows: 20 cells counted for target and centromere amplification, if the gene count is >2 and ≤3, then 50 cells were counted.
An overview of the AZURE clinical trial (Coleman et al N Eng J Med 2011; 365: 1396-1405 and AZURE Current Controlled Trials number, ISRCTN79831382 and ClinicalTrials.gov identifier NCT00072020) study design, whose patients were used to validate MAF, is provided in FIG. 2. MAF was validated in a retrospective analysis of the AZURE trial using patient tumor sample prospectively collected under regulatory compliant conditions. Out of the 3360 patients recruited, 1,769 donated tumor tissue (52.4%). There were 13 TMAs (tissue micro array) (150 patient samples each) (1,769 patients). There were 4 replicas of each TMA using different tissue cores (6,326 (4×patient)). One TMA had only 1 replica and two TMAs had three replicas. Based on the H&E analysis (hematoxilyin and eosin) (FIG. 3) (6,326): 3978 cores were evaluable (63%) and 2348 were nonevaluable.
For the FISH assay, there were 2,067 FISH evaluable cores (56%). […] 567 patients were nonevaluable by FISH in any of the 4 replicas (32%).
numerical and categorical (+/− cut-off>=2.5) variable; % of nucleic MAF amplified (MAF CN>2):numberical+categorical (cut-off TBD). For the IHC analysis: IHC H-Score: numerical+categorical (cut-off=200), IHC OD: numerical+categorical (cut-off tBD). The following clinical variables were analyzed: disease-free survival (DFS), invasive disease-free survival (IDFS), overall survival (OS), first recurrence in bone, bone recurrence at any time, time to first DFS event in bone, time to first DFS event not in bone, response to zoledronic acid treatment.
In analyzing the MAF FISH prognostic value, the patients from the control and treatment arms were pooled for the initial analysis. Optimized cut-offs for each variable to be analyzed were used when indicated. Death as a competing event was used in time to bone metastasis, anytime. The following clinical variables were analyzed: time to bone metastasis (anytime), time to bone metastasis (as first event), IDFS (including ipsilateral invasive breast tumor recurrence, regional invasive breast cancer recurrence, metastatic disease-breast cancer, death attributable to any cause, including breast cancer, contralateral invasive breast cancer, second primary non-breast invasive cancer), and overall survival.
The control and zoledronic acid treatment arms from the AZURE study described in Example 1 were evaluated to determine the effect of zoledronic acid treatment on MAF-stratified patients.

breast cancer [2] = assay: AZURE trial, MAF FISH stratification: invasive disease free survival (IDFS) / time to recurrence; conditions: MAF positive patients (>=2.2) in the zoledronic acid treatment arm; p<0.001, multivariate analysis
Text: as §1, with “counted. […]” for “counted.”
(§2) numerical and categorical (+/− cut-off>=2.5) variable; % of nucleic MAF amplified (MAF CN>2):numberical+categorical (cut-off TBD). […] The following clinical variables were analyzed: disease-free survival (DFS), invasive disease-free survival (IDFS), overall survival (OS), first recurrence in bone, bone recurrence at any time, time to first DFS event in bone, time to first DFS event not in bone, response to zoledronic acid treatment.
(§3) In analyzing the MAF FISH prognostic value, the patients from the control and treatment arms were pooled for the initial analysis. Optimized cut-offs for each variable to be analyzed were used when indicated. […]

breast cancer [3] = assay: AZURE trial, MAF FISH stratification: disease free survival (DFS); conditions: MAF negative post menopausal patients; zoledronic acid treatment; 95% CI 0.33-0.95
Text: as §1, with “counted. […]” for “counted.”
as §2, §3

breast cancer [4] = assay: AZURE trial, MAF FISH stratification: overall survival (OS); conditions: MAF negative post menopausal patients; zoledronic acid treatment; 95% CI 0.31-1.01
Text: as §1, with “counted. […]” for “counted.”
as §2, §3

SMILES: O=P(O)(O)C(O)(Cn1ccnc1)P(=O)(O)O [zoledronic acid]
- Hazard ratio (HR), risk of bone metastasis at any time (breast cancer [1]; MAF FISH not positive patients, pre-specified cut off 2.5, zoledronic acid treatment vs control, death as competing event, p=0.03): 0.65
- Hazard ratio (HR), time to a bone metastatic event (anytime) (breast cancer [1]; MAF non-positive non-post-menopausal patients, cut off 2.5, p=0.08): 0.66
- Hazard ratio (HR), time to a bone metastatic event (anytime) (breast cancer [1]; MAF non-positive postmenopausal patients, cut off 2.5, limited number of events): 0.63
- Hazard ratio (HR), time to a bone metastatic event (anytime) (breast cancer [1]; MAF positive non-post-menopausal patients, cut off 2.5, p=0.045): 2.44
- Hazard ratio (HR), risk of bone metastasis at any time (breast cancer [1]; MAF positive patients, cut off 2.5, zoledronic acid treatment vs control, non-significant, p=0.22): 1.54
- Hazard ratio (HR), time to a bone metastatic event (anytime) (breast cancer [1]; MAF positive postmenopausal patients (>2.5), treatment outcome, p=0.26, limited number of events): 0.46
- Hazard ratio (HR), risk of bone metastasis at any time (breast cancer [1]; zoledronic acid arm, MAF FISH not positive (<2.3) compared to MAF FISH positive patients, p=0.01): 0.52
- Hazard ratio (HR), time to recurrence (invasive disease) (breast cancer [2]): 0.52
- Hazard ratio (HR), DFS outcome (breast cancer [3]): 0.56
- Hazard ratio (HR), overall survival outcome (breast cancer [4]): 0.56
